Results published in patent US8952024B2, “Herbicidal pyrimidone derivatives” (E I du Pont de Nemours and Company, priority 2009, dated 2015).

Columns and labels:
Assay type in all cases: in vivo
rice (Oryza sativa) = test: Test B flooded paddy test; conditions: for Plant response rating, Flood, Rice: 250 g ai/ha, flooded paddy test, visual rating on 0 to 100 scale (0 no effect, 100 complete control) after 13 to 15 days; for Plant response rating, Rice: Flood (flooded paddy test), 13 to 15 days; for Rice plant response rating: Flood, 31 g ai/ha, scale 0 to 100 (0 no effect, 100 complete control)
Outline: (§1)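 Ratings are visual, 0–100 (100 = complete control), taken versus untreated controls 13 to 15 days after treatment in the greenhouse. Compound went straight into paddy water held 3 cm above soil, applied to 2-leaf-stage plants of four species.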

[1] = system: umbrella sedge (Cyperus difformis); test: Test B flooded paddy test; conditions: for Plant response rating, Flood, Sedge, Umbrella: 250 g ai/ha, flooded paddy test, visual rating on 0 to 100 scale (0 no effect, 100 complete control) after 13 to 15 days; for Plant response rating, Sedge, Umbrella: Flood (flooded paddy test), 13 to 15 days; for Sedge, Umbrella plant response rating: Flood, 31 g ai/ha, scale 0 to 100 (0 no effect, 100 complete control)
Outline: as §1

[2] = system: ducksalad (Heteranthera limosa); test: Test B flooded paddy test; conditions: for Plant response rating, Flood, Ducksalad: 250 g ai/ha, flooded paddy test, visual rating on 0 to 100 scale (0 no effect, 100 complete control) after 13 to 15 days; for Plant response rating, Ducksalad: Flood (flooded paddy test), 13 to 15 days; for Ducksalad plant response rating: Flood, 31 g ai/ha, scale 0 to 100 (0 no effect, 100 complete control)
Outline: as §1

[3] = system: barnyardgrass (Echinochloa crus-galli); test: Test B flooded paddy test; conditions: for Plant response rating, Flood, Barnyardgrass: 250 g ai/ha, flooded paddy test, visual rating on 0 to 100 scale (0 no effect, 100 complete control) after 13 to 15 days; for Plant response rating, Barnyardgrass: Flood (flooded paddy test), 13 to 15 days; for Barnyardgrass plant response rating: Flood, 31 g ai/ha, scale 0 to 100 (0 no effect, 100 complete control)
Outline: as §1

[4] = system: large crabgrass (Digitaria sanguinalis); test: Test A pre-/postemergence plant response; conditions: for Crabgrass, Large plant response rating: visual injury, 0 to 100 scale (0 no effect, 100 complete control), approx. ten days
Outline: (§2)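 Each species was treated preemergence via directed soil spray and postemergence at the one- to two-leaf stage, with compounds formulated in a non-phytotoxic solvent plus surfactant. Visual injury relative to untreated controls was rated after about ten days on a 0–100 scale.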

[5] = system: pigweed (Amaranthus retroflexus); test: Test A pre-/postemergence plant response; conditions: for Pigweed plant response rating: visual injury, 0 to 100 scale (0 no effect, 100 complete control), approx. ten days
Outline: as §2

[6] = system: velvetleaf (Abutilon theophrasti); test: Test A pre-/postemergence plant response; conditions: for Velvetleaf plant response rating: visual injury, 0 to 100 scale (0 no effect, 100 complete control), approx. ten days
Outline: as §2

[7] = system: morningglory (Ipomoea spp.); test: Test A pre-/postemergence plant response; conditions: for Morningglory plant response rating: visual injury, 0 to 100 scale (0 no effect, 100 complete control), approx. ten days
Outline: as §2

corn (Zea mays) = test: Test A pre-/postemergence plant response; conditions: for Corn plant response rating: visual injury, 0 to 100 scale (0 no effect, 100 complete control), approx. ten days
Outline: as §2

[8] = system: wheat (Triticum aestivum); test: Test A pre-/postemergence plant response; conditions: for Wheat plant response rating: visual injury, 0 to 100 scale (0 no effect, 100 complete control), approx. ten days
Outline: as §2

[9] = system: barnyardgrass (Echinochloa crus-galli); test: Test A pre-/postemergence plant response; conditions: for Barnyardgrass plant response rating: visual injury, 0 to 100 scale (0 no effect, 100 complete control), approx. ten days
Outline: as §2

[10] = system: giant foxtail (Setaria faberii); test: Test A pre-/postemergence plant response; conditions: for Foxtail, Giant plant response rating: visual injury, 0 to 100 scale (0 no effect, 100 complete control), approx. ten days
Outline: as §2

[11] = 62 g ai/ha, scale of 0 to 100 where 0 is no effect and 100 is complete control
[12] = 125 g ai/ha, scale 0 to 100, 0 is no effect, 100 is complete control
[13] = Postemergence, 125 g ai/ha, 0 to 100 scale where 0 is no effect and 100 is complete control
[14] = Preemergence, 125 g ai/ha, 0 to 100 scale, 0 = no effect, 100 = complete control
[15] = Preemergence, 500 g ai/ha, 0 to 100 scale, 0 = no effect, 100 = complete control

O=C1CCCC(O)=C1C(=O)c1cnc(-c2cccc(F)c2)n(-c2ccccc2)c1=O [Compound 199]
Plant response rating, Flood, Rice (rice (Oryza sativa)): 0 | Plant response rating, Rice (rice (Oryza sativa); [11]): 0 | Plant response rating, Rice (rice (Oryza sativa); [12]): 0 | Rice plant response rating (rice (Oryza sativa)): 0 | Plant response rating, Flood, Sedge, Umbrella [1]: 85 | Plant response rating, Sedge, Umbrella [1, 11]: 70 | Plant response rating, Sedge, Umbrella [1, 12]: 75 | Sedge, Umbrella plant response rating [1]: 60 | Plant response rating, Flood, Ducksalad [2]: 90 | Plant response rating, Ducksalad [2, 11]: 85 | Plant response rating, Ducksalad [2, 12]: 85 | Ducksalad plant response rating [2]: 85 | Plant response rating, Flood, Barnyardgrass [3]: 25 | Plant response rating, Barnyardgrass [3, 11]: 0 | Plant response rating, Barnyardgrass [3, 12]: 15 | Barnyardgrass plant response rating [3]: 0 | Plant response rating, Crabgrass, Large [4, 13]: 70 | Crabgrass, Large plant response rating ([4]; Postemergence, 500 g ai/ha): 100 | Plant response rating, Crabgrass, Large [4, 14]: 60 | Plant response rating, Crabgrass, Large [4, 15]: 100 | Plant response rating, Pigweed [5, 13]: 100 | Pigweed plant response rating ([5]; Postemergence, 500 g ai/ha): 100 | Plant response rating, Pigweed [5, 14]: 80 | Plant response rating, Pigweed [5, 15]: 100 | Plant response rating, Velvetleaf [6, 13]: 100 | Velvetleaf plant response rating ([6]; Postemergence, 500 g ai/ha): 100 | Plant response rating, Velvetleaf [6, 14]: 90 | Plant response rating, Velvetleaf [6, 15]: 100 | Plant response rating, Morningglory [7, 13]: 100 | Morningglory plant response rating ([7]; Postemergence, 500 g ai/ha): 100 | Plant response rating, Morningglory [7, 14]: 70 | Plant response rating, Morningglory [7, 15]: 80 | Plant response rating, Corn (corn (Zea mays); [13]): 0 | Corn plant response rating (corn (Zea mays); Postemergence, 500 g ai/ha): 50 | Plant response rating, Corn (corn (Zea mays); [14]): 20 | Plant response rating, Corn (corn (Zea mays); [15]): 30 | Plant response rating, Wheat [8, 13]: 0 | Wheat plant response rating ([8]; Postemergence, 500 g ai/ha): 10 | Plant response rating, Wheat [8, 14]: 0 | Plant response rating, Wheat [8, 15]: 20 | Plant response rating, Barnyardgrass [9, 13]: 90 | Barnyardgrass plant response rating ([9]; Postemergence, 500 g ai/ha): 100 | Plant response rating, Barnyardgrass [9, 14]: 20 | Plant response rating, Barnyardgrass [9, 15]: 90 | Plant response rating, Foxtail, Giant [10, 13]: 100 | Foxtail, Giant plant response rating ([10]; Postemergence, 500 g ai/ha): 100 | Plant response rating, Foxtail, Giant [10, 14]: 60 | Plant response rating, Foxtail, Giant [10, 15]: 90

CCn1c(Cc2ccccc2)ncc(C(=O)C2=C(O)CCCC2=O)c1=O [Compound 200]
Plant response rating, Flood, Rice (rice (Oryza sativa)): 23 | Plant response rating, Rice (rice (Oryza sativa); [11]): 0 | Plant response rating, Rice (rice (Oryza sativa); [12]): 10 | Rice plant response rating (rice (Oryza sativa)): 0 | Plant response rating, Flood, Sedge, Umbrella [1]: 70 | Plant response rating, Sedge, Umbrella [1, 11]: 33 | Plant response rating, Sedge, Umbrella [1, 12]: 43 | Sedge, Umbrella plant response rating [1]: 30 | Plant response rating, Flood, Ducksalad [2]: 85 | Plant response rating, Ducksalad [2, 11]: 83 | Plant response rating, Ducksalad [2, 12]: 85 | Ducksalad plant response rating [2]: 38 | Plant response rating, Flood, Barnyardgrass [3]: 38 | Plant response rating, Barnyardgrass [3, 11]: 0 | Plant response rating, Barnyardgrass [3, 12]: 23 | Barnyardgrass plant response rating [3]: 0 | Plant response rating, Crabgrass, Large [4, 13]: 10 | Crabgrass, Large plant response rating ([4]; Postemergence, 500 g ai/ha): 10 | Plant response rating, Crabgrass, Large [4, 14]: 0 | Plant response rating, Crabgrass, Large [4, 15]: 0 | Plant response rating, Pigweed [5, 13]: 60 | Pigweed plant response rating ([5]; Postemergence, 500 g ai/ha): 80 | Plant response rating, Pigweed [5, 14]: 0 | Plant response rating, Pigweed [5, 15]: 20 | Plant response rating, Velvetleaf [6, 13]: 100 | Velvetleaf plant response rating ([6]; Postemergence, 500 g ai/ha): 100 | Plant response rating, Velvetleaf [6, 14]: 0 | Plant response rating, Velvetleaf [6, 15]: 60 | Plant response rating, Morningglory [7, 13]: 50 | Morningglory plant response rating ([7]; Postemergence, 500 g ai/ha): 60 | Plant response rating, Morningglory [7, 14]: 0 | Plant response rating, Corn (corn (Zea mays); [13]): 0 | Corn plant response rating (corn (Zea mays); Postemergence, 500 g ai/ha): 0 | Plant response rating, Corn (corn (Zea mays); [14]): 0 | Plant response rating, Corn (corn (Zea mays); [15]): 0 | Plant response rating, Wheat [8, 13]: 0 | Wheat plant response rating ([8]; Postemergence, 500 g ai/ha): 0 | Plant response rating, Wheat [8, 14]: 0 | Plant response rating, Wheat [8, 15]: 0 | Plant response rating, Barnyardgrass [9, 13]: 0 | Barnyardgrass plant response rating ([9]; Postemergence, 500 g ai/ha): 10 | Plant response rating, Barnyardgrass [9, 14]: 0 | Plant response rating, Barnyardgrass [9, 15]: 0 | Plant response rating, Foxtail, Giant [10, 13]: 0 | Foxtail, Giant plant response rating ([10]; Postemergence, 500 g ai/ha): 10 | Plant response rating, Foxtail, Giant [10, 14]: 0 | Plant response rating, Foxtail, Giant [10, 15]: 0
